According to patent publication US12624018B1, “Inhibitors of RIPK2 and medical uses thereof” (Odyssey Therapeutics, Inc., priority 2022, dated 2026):

Target: T1, RIPK2 enzyme (Homo sapiens, UniProt O43353)
T1 construct: purchased Carna 09-128
Test: RIPK2 inhibition (ADP-Glo Kinase Assay)
Format: biochemical
Details: RIPK2 5 nM, ATP 150 μM, MBP substrate, read-out: RIPK2 IC50
How it was run: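 Human RIPK2 (5 nM) preincubated with compound 30 min at room temperature in 50 mM HEPES pH 7.5, 10 mM MgCl2, 2 mM DTT, 1 mM EGTA, 0.01% Brij-35, 0.05% BSA; native swine MBP as substrate. ADP formed quantified by ADP-Glo luminescence; percent inhibition relative to DMSO and no-enzyme controls.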

T1 sequence (O43353 1-299 limits assumed): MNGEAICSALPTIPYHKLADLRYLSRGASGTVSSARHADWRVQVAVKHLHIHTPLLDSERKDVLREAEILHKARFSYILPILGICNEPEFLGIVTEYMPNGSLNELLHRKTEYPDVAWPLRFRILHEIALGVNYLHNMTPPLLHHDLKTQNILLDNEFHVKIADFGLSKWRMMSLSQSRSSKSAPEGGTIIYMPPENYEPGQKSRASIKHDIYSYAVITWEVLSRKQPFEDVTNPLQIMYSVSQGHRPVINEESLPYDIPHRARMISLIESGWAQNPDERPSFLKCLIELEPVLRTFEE

Structure (SMILES) | IC50 [nM]
COc1ccc2ncnc(Oc3cnc(CC(=O)Nc4cnn(C(C)(C)C)c4)c(Cl)c3)c2c1 [Compound 10, N-(1-(tert-butyl)-1H-pyrazol-4-yl)-2-(3-chloro-5-((6-methoxyquinazolin-4-yl)oxy)pyridin-2-yl)acetamide] | 43.5
CCN1CCC(Oc2ccc3ncnc(Oc4ccc(CC(=O)Nc5cnn(C(C)(C)C)c5)cc4C)c3c2)CC1 [Compound 109, N-(1-(tert-butyl)-1H-pyrazol-4-yl)-2-(4-((6-((1-ethyl-piperidin-4-yl)oxy)quinazolin-4-yl)oxy)-3-methylphenyl) acetamide] | 3.9
[2H]C([2H])([2H])n1nc(NC(=O)Cc2ccc(Oc3ccnc4ccc(S(C)(=O)=O)cc34)cc2F)cc1C(C)(C)C [Compound 142, N-(5-(tert-butyl)-1-(methyl-d3)-1H-pyrazol-3-yl)-2-(2-fluoro-4-((6-(methylsulfonyl)quinolin-4-yl)oxy)phenyl)acetamide] | < 2.5
COCCS(=O)(=O)c1ccc2nccc(Oc3ccc(CC(=O)Nc4cnn(C(C)(C)C)c4)cc3C)c2c1 [Compound 204, N-(1-(tert-butyl)-1H-pyrazol-4-yl)-2-(4-((6-((2-methoxyethyl)sulfonyl)quinolin-4-yl)oxy)-3-methylphenyl)acetamide] | < 2.5
Cc1cc(CC(=O)Nc2cnn(C(C)(C)C)c2)ccc1Oc1ccnc2ccc(OC3CCNCC3F)cc12 (racemic) [Compound 238, N-(1-(tert-butyl)-1H-pyrazol-4-yl)-2-(4-((6-((-3-fluoro-piperidin-4-yl)oxy)quinolin-4-yl)oxy)-3-methylphenyl) acetamide] | < 2.5
CS(=O)(=O)c1ccc2nccc(Oc3ccc(CC(=O)Nc4cc(C5CC5)[nH]n4)c(F)c3)c2c1 [Compound 145, N-(5-cyclopropyl-1H-pyrazol-3-yl)-2-(2-fluoro-4-((6-(methylsulfonyl)quinolin-4-yl)oxy)phenyl)acetamide] | 3.1
Cn1nc(NC(=O)Cc2ccc(Oc3ccnc4ccc(S(C)(=O)=O)cc34)cc2F)cc1C1CC1 [Compound 146, N-(5-cyclopropyl-1-methyl-1H-pyrazol-3-yl)-2-(2-fluoro-4-((6-(methylsulfonyl)quinolin-4-yl)oxy)phenyl)acetamide] | < 2.5
Cc1cc(CC(=O)Nc2cnn(C(C)(C)C)c2)ccc1Oc1ccnc2ccc(OC3CCNC(C)C3)cc12 (racemic) [Compound 220, N-(1-(tert-butyl)-1H-pyrazol-4-yl)-2-(3-methyl-4-((6-((-2-methyl-piperidin-4-yl)oxy)quinolin-4-yl)oxy)phenyl) acetamide] | < 2.5
Cc1cc(CC(=O)Nc2cnn(C(C)(C)C)c2)ccc1Oc1ccnc2ccc(OCC(C)(C)O)cc12 [Compound 226, N-(1-(tert-butyl)-1H-pyrazol-4-yl)-2-(4-((6-(2-hydroxy-2-methyl-propoxy)quinolin-4-yl)oxy)-3-methylphenyl) acetamide] | < 2.5
COc1cc2ncnc(Oc3ccc(CC(=O)Nc4cnn(C(C)(C)C)c4)c(F)c3)c2cc1S(=O)(=O)C(C)(C)C [Compound 2, N-(1-(tert-butyl)-1H-pyrazol-4-yl)-2-(4-((6-(tert-butylsulfonyl)-7-methoxyquinazolin-4-yl)oxy)-2-fluorophenyl)acetamide] | < 2.5
CC(C)(C)n1cc(NC(=O)Cc2ccc(Oc3ccnc4ccc(OC5CCNCC5)cc34)c(Cl)c2)cn1 [Compound 171, N-(1-(tert-butyl)-1H-pyrazol-4-yl)-2-(3-chloro-4-((6-(piperidin-4-yloxy)quinolin-4-yl)oxy)phenyl) acetamide] | < 2.5
Cc1cc(CC(=O)Nc2cnn(C(C)(C)C)c2)ccc1Oc1ccnc2ccc(S(=O)(=O)C3CCNC3)cc12 (single isomer, unassigned) [Compound 202, N-(1-(tert-butyl)-1H-pyrazol-4-yl)-2-(3-methyl-4-((6-(pyrrolidin-3-ylsulfonyl)quinolin-4-yl)oxy)phenyl)acetamde] | < 2.5
COc1ccc2ncnc(Oc3cnc(CC(=O)Nc4cc(C(C)(C)C)ccn4)c(F)c3)c2c1 [Compound 29, N-(4-(tert-butyl)pyridin-2-yl)-2-(3-fluoro-5-((6-methoxy-quinazolin-4-yl)oxy)pyridin-2-yl)acetamide] | 5.2
COc1ccc2ncnc(Oc3cnc(C(C)C(=O)Nc4cnn(C(C)(C)C)c4)c(F)c3)c2c1 (single isomer, unassigned) [Compound 11, N-(1-(tert-butyl)-1H-pyrazol-4-yl)-2-(3-fluoro-5-((6-methoxyquinazolin-4-yl)oxy)pyridin-2-yl)propanamide] | 70.7
Cc1cc(CC(=O)Nc2cnn(C(C)(C)C)c2)ccc1Oc1ccnc2ccc(O[C@H]3C[C@@H](N)C3)cc12 [Compound 123, 2-(4-((6-((1s,3s)-3-aminocyclo-butoxy)quinolin-4-yl)oxy)-3-methyl-phenyl)-N-(1-(tert-butyl)-1H-pyrazol-4-yl)acetamide] | < 2.5

The remaining lines, values ahead:

IC50 [nM] | Structure (SMILES)
< 2.5 | Cc1cc(CC(=O)Nc2cnn(C(C)(C)C)c2)c(F)cc1Oc1ccnc2ccc(C(=O)N(C)C)cc12 [Compound 361, 4-(4-(2-((1-(tert-butyl)-1H-pyrazol-4-yl)amino)-2-oxoethyl)-5-fluoro-2-methyl-phenoxy)-N,N-dimethyl-quinoline-6-carboxamide]
< 2.5 | Cc1cc(CC(=O)Nc2cnn(C(C)(C)C)c2)c(F)cc1Oc1ccnc2ccc(C(=O)N3C[C@H]4C[C@@H]3CO4)cc12 [Compound 452, 2-(4-((6-((1R,4R)-2-oxa-5-azabicyclo[2.2.1]heptane-5-carbonyl)quinolin-4-yl)oxy)-2-fluoro-5-methylphenyl)-N-(1-(tert-butyl)-1H-pyrazol-4-yl)acetamide]
< 2.5 | Cc1cc(CC(=O)Nc2cnn(C(C)(C)C)c2)c(F)cc1Oc1ccnc2ccc(-c3nnccc3C)cc12 [Compound 460, N-(1-(tert-butyl)-1H-pyrazol-4-yl)-2-(2-fluoro-5-methyl-4-((6-(4-methylpyridazin-3-yl)quinolin-4-yl)oxy)phenyl)acetamide]
< 2.5 | Cc1cc(CC(=O)Nc2cnn(C(C)(C)C)c2)c(F)cc1Oc1ccnc2ccc(C(C)(C)O)cc12 [Compound 433, N-(1-(tert-butyl)-1H-pyrazol-4-yl)-2-(2-fluoro-4-((6-(2-hydroxypropan-2-yl)quinolin-4-yl)oxy)-5-methylphenyl)acetamide]
< 2.5 | Cc1cc(CC(=O)Nc2cnn(C(C)(C)C)c2)c(F)cc1Oc1ccnc2ccc(C(=O)N3CCC(N)C3)cc12 (centres unmarked) [Compound 449, 2-(4-((6-(3-aminopyrrolidine-1-carbonyl)quinolin-4-yl)oxy)-2-fluoro-5-methylphenyl)-N-(1-(tert-butyl)-1H-pyrazol-4-yl)acetamide]
< 2.5 | Cc1c(Oc2ccnc3ccc(C(=O)N4CC5(COC5)C4)cc23)ccc(CC(=O)Nc2cnn(C(C)(C)C)c2)c1F [Compound 347, 2-(4-((6-(2-oxa-6-azaspiro[3.3]heptane-6-carbonyl)quinolin-4-yl)oxy)-2-fluoro-3-methyl-phenyl)-N-(1-(tert-butyl)-1H-pyrazol-4-yl)acetamide]
< 2.5 | Cc1cc(CC(=O)Nc2cnn(C(C)(C)C)c2)c(F)cc1Oc1ccnc2ccc(CN3C[C@H]4C[C@@H]3CO4)cc12 [Compound 423, 2-(4-((6-(((1R,4R)-2-oxa-5-azabicyclo[2.2.1]heptan-5-yl)methyl)quinolin-4-yl)oxy)-2-fluoro-5-methylphenyl)-N-(1-(tert-butyl)-1H-pyrazol-4-yl)acetamide]
< 2.5 | Cc1cc(CC(=O)Nc2cnn(C(C)(C)C)c2)cc(F)c1Oc1ncnc2ccc(C(N)=O)cc12 [Compound 447, 4-(4-(2-((1-(tert-butyl)-1H-pyrazol-4-yl)amino)-2-oxoethyl)-2-fluoro-6-methylphenoxy)quinazoline-6-carboxamide]
< 2.5 | Cc1c(Oc2ccnc3ccc(S(=O)(=O)N4CCCC4)cc23)ccc(CC(=O)Nc2cnn(C(C)(C)C)c2)c1F [Compound 270, N-(1-(tert-butyl)-1H-pyrazol-4-yl)-2-(2-fluoro-3-methyl-4-((6-(pyrrolidin-1-ylsulfonyl)quinolin-4-yl)oxy)phenyl)acetamide]
< 2.5 | Cc1cc(CC(=O)Nc2cnn(C(C)(C)C)c2)ccc1Oc1ccnc2ccc(S(=O)(=O)C3CNC3)cc12 [Compound 314, 2-(4-((6-(azetidin-3-ylsulfonyl)quinolin-4-yl)oxy)-3-methylphenyl)-N-(1-(tert-butyl)-1H-pyrazol-4-yl)acetamide]
< 2.5 | Cc1c(Oc2ccnc3ccc(CC4CCNCC4)cc23)ccc(CC(=O)Nc2cnn(C(C)(C)C)c2)c1F [Compound 407, N-(1-(tert-butyl)-1H-pyrazol-4-yl)-2-(2-fluoro-3-methyl-4-((6-(piperidin-4-ylmethyl)quinolin-4-yl)oxy)phenyl)acetamide]
< 2.5 | COc1cc2nccc(Oc3cc(F)c(CC(=O)Nc4cnn(C(C)(C)C)c4)cc3C)c2cc1C(N)=O [Compound 436, 4-(4-(2-((1-(tert-butyl)-1H-pyrazol-4-yl)amino)-2-oxoethyl)-5-fluoro-2-methylphenoxy)-7-methoxyquinoline-6-carboxamide]
< 2.5 | Cc1c(Oc2ccnc3ccc(N4CCCC4=O)cc23)ccc(CC(=O)Nc2cnn(C(C)(C)C)c2)c1F [Compound 295, N-(1-(tert-butyl)-1H-pyrazol-4-yl)-2-(2-fluoro-3-methyl-4-((6-(2-oxopyrrolidin-1-yl)quinolin-4-yl)oxy)phenyl) acetamide]
< 2.5 | Cc1c(Oc2ccnc3ccc(N(C)S(C)(=O)=O)cc23)ccc(CC(=O)Nc2cnn(C(C)(C)C)c2)c1F [Compound 278, N-(1-(tert-butyl)-1H-pyrazol-4-yl)-2-(2-fluoro-3-methyl-4-((6-(N-methylmethyl-sulfonamido)quinolin-4-yl)oxy)phenyl) acetamide]
